Drawing on PMC7772550 (Heliyon, 2020), this text covers IC50 for 1 compound.

Structures are written as SMILES.

This experiment relates to NO production. The experiment is described as follows: nitric oxide. In kind it is cell-based. Conditions: read-out: NO production inhibition IC50.

For `COc1ccc2c(c1)c(CC(=O)O)c(C)n2C(=O)c1ccc(Cl)cc1` [Indomethacin], the IC50 came out at 32.2 µM.
